Test results from US20240270741A1 (Cogent Biosciences, Inc., priority 2023, published 2024).
Structures can show the parent of a compound that is named as a salt.

Biological target: FGFR2 (Homo sapiens, UniProt P21802)
Assay: FGFR wild type enzyme assay (HTRF KinEASE-TK), FGFR2
Conditions: Enz FGFR2 (nM)

Chain of FGFR2 (P21802 399-821 limits assumed): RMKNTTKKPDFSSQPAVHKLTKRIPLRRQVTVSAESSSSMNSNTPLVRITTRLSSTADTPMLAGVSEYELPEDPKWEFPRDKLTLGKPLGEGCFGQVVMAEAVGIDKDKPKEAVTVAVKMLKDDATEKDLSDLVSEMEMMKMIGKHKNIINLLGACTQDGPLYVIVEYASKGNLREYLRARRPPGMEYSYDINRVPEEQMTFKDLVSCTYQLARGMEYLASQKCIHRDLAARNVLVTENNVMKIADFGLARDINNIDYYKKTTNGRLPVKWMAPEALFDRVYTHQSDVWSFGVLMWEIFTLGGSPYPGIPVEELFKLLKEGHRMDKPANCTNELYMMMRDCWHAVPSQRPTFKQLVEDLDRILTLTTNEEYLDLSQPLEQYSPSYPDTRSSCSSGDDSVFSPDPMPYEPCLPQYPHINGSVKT

IC50 [nM] | SMILES
2 | CSc1cc(-c2cnn([C@H]3CCCNC3)c2)cn2ncc(C#N)c12 [Example 50, 4-methylsulfanyl-6-[1-[(3S)-3-piperidyl]pyrazol-4-yl] pyrazolo[1,5-a]pyridine-3-carbonitrile]
1 | CCSc1cc(-c2cnn([C@H]3CCCNC3)c2)cn2ncc(C#N)c12 [Example 51, 4-ethylsulfanyl-6-[1-[(3S)-3-piperidyl]pyrazol-4-yl]pyrazolo[1,5-a]pyridine-3-carbonitrile]
2 | CC(C)Sc1cc(-c2cnn([C@H]3CCCNC3)c2)cn2ncc(C#N)c12 [Example 52, 4-isopropylsulfanyl-6-[1-[(3S)-3-piperidyl]pyrazol-4-yl]pyrazolo[1,5-a]pyridine-3-carbonitrile]
3 | COCCSc1cc(-c2cnn([C@H]3CCCNC3)c2)cn2ncc(C#N)c12 [Example 53, 4-(2-methoxyethylsulfanyl)-6-[1-[(3S)-3-piperidyl]pyrazol-4-yl]pyrazolo[1,5-a]pyridine-3-carbonitrile]
1 | N#Cc1cnn2cc(-c3cnn([C@H]4CCCNC4)c3)cc(SC3CCC3)c12 [Example 54, 4-cyclobutylsulfanyl-6-[1-[(3S)-3-piperidyl]pyrazol-4-yl]pyrazolo[1,5-a]pyridine-3-carbonitrile]
13 | N#Cc1cnn2cc(-c3cnn([C@H]4CCCNC4)c3)cc(Sc3cnccn3)c12 [Example 55, 6-[1-[(3S)-3-piperidyl]pyrazol-4-yl]-4-pyrazin-2-ylsulfanyl-pyrazolo[1,5-a]pyridine-3-carbonitrile]
6 | Cc1c(-c2cc(Sc3ccccn3)c3c(C#N)cnn3c2)cnn1[C@H]1CCCNC1 [Example 56, 6-[5-methyl-1-[(3S)-3-piperidyl]pyrazol-4-yl]-4-(2-pyridylsulfanyl)pyrazolo[1,5-a]pyridine-3-carbonitrile]
13 | Cn1ncc2cc(Sc3cc(-c4cnn([C@H]5CCCNC5)c4)cn4ncc(C#N)c34)ccc21 [Example 57, 4-(1-methylindazol-5-yl)sulfanyl-6-[1-[(3S)-3-piperidyl]pyrazol-4-yl]pyrazolo[1,5-a]pyridine-3-carbonitrile]
4 | N#Cc1cnn2cc(-c3cnn([C@H]4CCCNC4)c3)cc(SC3CCOC3)c12 (stereo partly drawn) [Example 58, 6-[1-[(3S)-3-piperidyl]pyrazol-4-yl]-4-tetrahydrofuran-3-ylsulfanyl-pyrazolo[1,5-a]pyridine-3-carbonitrile]
11 | Cc1ccnc(Sc2cc(-c3cnn([C@H]4CCCNC4)c3)cn3ncc(C#N)c23)c1 [Example 59, 4-[(4-methyl-2-pyridyl)sulfanyl]-6-[1-[(3S)-3-piperidyl]pyrazol-4-yl]pyrazolo[1,5-a]pyridine-3-carbonitrile]
7 | N#Cc1cnn2cc(-c3cnn(C4CCNCC4)c3)cc(Sc3ncccn3)c12 [Example 60, 6-(1-(piperidin-4-yl)-1H-pyrazol-4-yl)-4-(pyrimidin-2-ylthio)pyrazolo[1,5-a]pyridine-3-carbonitrile, HCl]
9 | Cn1nccc1Sc1cc(-c2cnn(C3CCNCC3)c2)cn2ncc(C#N)c12 [Example 61, 4-((1-methyl-1H-pyrazol-5-yl)thio)-6-(1-(piperidin-4-yl)-1H-pyrazol-4-yl)pyrazolo[1,5-a]pyridine-3-carbonitrile, HCl]
0.3 | N#Cc1ccccc1Sc1cc(-c2cnn(C3CCNCC3)c2)cn2ncc(C#N)c12 [Example 62, 4-((2-cyanophenyl)thio)-6-(1-(piperidin-4-yl)-1H-pyrazol-4-yl)pyrazolo[1,5-a]pyridine-3-carbonitrile]
1 | N#Cc1cnn2cc(-c3cnn([C@H]4CCCNC4)c3)cc(Sc3ncccc3F)c12 [Example 63, 4-[(3-fluoro-2-pyridyl)sulfanyl]-6-[1-[(3S)-3-piperidyl]pyrazol-4-yl]pyrazolo[1,5-a]pyridine-3-carbonitrile]
61 | N#Cc1cnn2cc(-c3cnn([C@H]4CCCNC4)c3)cc(Sc3cc(C(F)(F)F)ccn3)c12 [Example 64, 6-[1-[(3S)-3-piperidyl]pyrazol-4-y1]-4-[[4-(trifluoromethyl)-2-pyridyl]sulfanyl]pyrazolo[1,5-a]pyridine-3-carbonitrile]
4 | Cc1cccnc1Sc1cc(-c2cnn(C3CCNCC3)c2)cn2ncc(C#N)c12 [Example 65, 4-((3-methylpyridin-2-yl)thio)-6-(1-(piperidin-4-yl)-1H-pyrazol-4-yl)pyrazolo[1,5-a]pyridine-3-carbonitrile, HCl]
12 | Cc1cc(Sc2cc(-c3cnn(C4CCNCC4)c3)cn3ncc(C#N)c23)n(C)n1 [Example 66, 4-((1,3-dimethyl-1H-pyrazol-5-yl)thio)-6-(1-(piperidin-4-yl)-1H-pyrazol-4-yl)pyrazolo[1,5-a]pyridine-3-carbonitrile, HCl]

IC50 [nM] | SMILES
4 | N#Cc1cnn2cc(-c3cnn([C@H]4CCCNC4)c3)cc(Sc3ncccc3C(F)(F)F)c12 [Example 67]
68 | N#Cc1cnn2cc(-c3cnn([C@H]4CCCNC4)c3)cc(Sc3cccc(C(F)(F)F)n3)c12 [Example 68, 6-[1-[(3S)-3-piperidyl]pyrazol-4-yl]-4-[[6-(trifluoromethyl)-2-pyridyl]sulfanyl] pyrazolo[1,5-a]pyridine-3-carbonitrile]
8 | N#Cc1cccc(Sc2cc(-c3cnn(C4CCNCC4)c3)cn3ncc(C#N)c23)c1 [Example 69, 4-((3-cyanophenyl)thio)-6-(1-(piperidin-4-yl)-1H-pyrazol-4-yl)pyrazolo[1,5-a]pyridine-3-carbonitrile]
3 | Cc1ccc(F)c(Sc2cc(-c3cnn(C4CCNCC4)c3)cn3ncc(C#N)c23)n1 [Example 70, 4-((3-fluoro-6-methylpyridin-2-yl)thio)-6-(1-(piperidin-4-yl)-1H-pyrazol-4-yl)pyrazolo[1,5-a]pyridine-3-carbonitrile, HCl]
3 | Cc1ccnc(Sc2cc(-c3cnn(C4CCNCC4)c3)cn3ncc(C#N)c23)c1C [Example 72, 4-((3,4-dimethylpyridin-2-yl)thio)-6-(1-(piperidin-4-yl)-1H-pyrazol-4-yl)pyrazolo[1,5-a]pyridine-3-carbonitrile]
4 | N#Cc1cnn2cc(-c3cnn([C@H]4CCNC4)c3)cc(Sc3ccccn3)c12 [Example 73, (S)-4-(pyridin-2-ylthio)-6-(1-(pyrrolidin-3-yl)-1H-pyrazol-4-yl)pyrazolo[1,5-a]pyridine-3-carbonitrile, HCl]
6 | N#Cc1cnn2cc(-c3cnn([C@H]4CCCNC4)c3)cc(Sc3ccccc3CO)c12 [Example 74, 4-[2-(hydroxymethyl)phenyl]sulfa-nyl-6-[1-[(3S)-3-piperidyl]pyrazol-4-yl]pyrazolo[1,5-a]pyridine-3-carbonitrile]
22 | N#Cc1cnn2cc(-c3cnn([C@H]4CCCNC4)c3)cc(Sc3cccc(C(F)F)n3)c12 [Example 75, 4-[[6-(difluoromethyl)-2-pyridyl]sulfanyl]-6-[1-[(3S)-3-piperidyl]pyrazol-4-yl]pyrazolo[1,5-a]pyridine-3-carbonitrile]
237 | N#Cc1cnn2cc(-c3cnn([C@H]4CCCNC4)c3)cc(Sc3ccncn3)c12 [Example 76, 6-[1-[(3S)-3-piperidyl]pyrazol-4-yl]-4-pyrimidin-4-ylsulfanyl-pyrazolo[1,5-a]pyridine-3-carbonitrile]
99 | N#Cc1cccc(Sc2cc(-c3cnn([C@H]4CCCNC4)c3)cn3ncc(C#N)c23)n1 [Example 77, 4-[(6-cyano-2-pyridyl)sulfanyl]-6-[1-[(3S)-3-piperidyl]pyrazol-4-yl]pyrazolo[1,5-a]pyridine-3-carbonitrile]
27 | Cc1cc(F)cc(Sc2cc(-c3cnn([C@H]4CCCNC4)c3)cn3ncc(C#N)c23)n1 [Example 78, 4-[(4-fluoro-6-methyl-2-pyridyl)sulfanyl]-6-[1-[(3S)-3-piperidyl]pyrazol-4-yl]pyrazolo[1,5-a]pyridine-3-carbonitrile]
2 | CC(C)OC[C@@H](C)Sc1cc(-c2cnn([C@H]3CCCNC3)c2)cn2ncc(C#N)c12 [Example 79, 4-[(1R)-2-isopropoxy-1-methyl-ethyl]sulfanyl-6-[1-[(3S)-3-piperidyl]pyrazol-4-yl]pyrazolo[1,5-a]pyridine-3-carbonitrile]
8 | Cc1ccncc1Sc1cc(-c2cnn([C@H]3CCCNC3)c2)cn2ncc(C#N)c12 [Example 80, 4-[(4-methyl-3-pyridyl)sulfanyl]-6-[1-[(3S)-3-piperidyl]pyrazol-4-yl]pyrazolo[1,5-a]pyridine-3-carbonitrile]
31 | Cc1ncccc1Sc1cc(-c2cnn([C@H]3CCCNC3)c2)cn2ncc(C#N)c12 [Example 81, 4-[(2-methyl-3-pyridyl)sulfanyl]-6-[1-[(3S)-3-piperidyl]pyrazol-4-yl]pyrazolo[1,5-a]pyridine-3-carbonitrile]
32 | N#Cc1cnn2cc(-c3cnn([C@H]4CCCNC4)c3)cc(Sc3cccnn3)c12 [Example 82, 6-[1-[(3S)-3-piperidyl]pyrazol-4-yl]-4-pyridazin-3-ylsulfanyl-pyrazolo[1,5-a]pyridine-3-carbonitrile]
19 | N#Cc1cnn2cc(-c3cnn([C@H]4CCCNC4)c3)cc(Sc3cncnc3)c12 [Example 83, 6-[1-[(3S)-3-piperidyl]pyrazol-4-yl]-4-pyrimidin-5-ylsulfanyl-pyrazolo[1,5-a] pyridine-3-carbonitrile]
11 | Cc1ccnc(C)c1Sc1cc(-c2cnn([C@H]3CCCNC3)c2)cn2ncc(C#N)c12 [Example 84, 4-[(2,4-dimethyl-3-pyridyl)sulfanyl]-6-[1-[(3S)-3-piperidyl]pyrazol-4-yl]pyrazolo[1,5-a]pyridine-3-carbonitrile]

Same assay, conditions: Enz FGFR2 (nM), FGFR2 wild type enzyme assay

IC50 [nM] | SMILES
1 | Cc1c(-c2cc(Sc3ccc(F)cc3C#N)c3c(C#N)cnn3c2)cnn1C1CCC(C)(C)NC1 (stereo in doubt) [Example 529, 4-(2-cyano-4-fluoro-phenyl)sulfanyl-6-[1-[(3R)-6,6-dimethyl-3-piperidyl]-5-methyl-pyrazol-4-yl]pyrazolo[1,5-a]pyridine-3-carbonitrile]
